Results on two compounds are retold here after patent US12156867B2, “Melanocortin agents for use in the therapeutic treatment of melanoma, tumors of the gastrointestinal tract, and thyroid carcinoma” (UNIVERSITA' DI PISA, priority 2018, dated 2024).

Each structure is given as a SMILES string.

Common to all, as to format: cell-based
The subject of assay [1] is A-2058 human melanoma cell line. Briefly: In vitro cytotoxicity / antiproliferative effect, cell count after 72 h. The conditions noted are these: A-2058 cells; for IC50: Homo sapiens, A2058, 72 h drug exposure, cell proliferation vs vehicle controls. The text has this: (§1) The present study used the human melanoma cell lines A-2058 BRAF-mutant (CRL-11147), obtained from ATCC (American Type Culture Collection, Manassas, USA), and WM-266-4 (91061233), obtained from ECACC (European Collection of Authenticated Cell Cultures). In addition, carcinoma cells of the gastrointestinal tract (Caco-2, HT-29) and thyroid carcinoma cells (8305C) were used. The compound ML00253764 was purchased from Tocris Bioscience (Bristol, UK), and solubilized in sterile water. The compound Vemurafenib was obtained from Selleckchem (Munich, Germany) and dissolved in dimethyl sulfoxide (DMSO). For the in vitro studies, both drugs were dissolved in a stock solution at 10 mM concentration. In the same experiment, the concentration of DMSO in the medium of the controls was the same used to obtain the maximum concentration of Vemurafenib in the cell culture media. The biotinylated anti-rabbit IgG antibody and the avidin-biotin complex were purchased from Vector Laboratories (Burlingame, CA, USA), while TO-PRO-3 iodide was from Molecular Probes (Eugene, OR, USA). Anti-MC4R antibody (ab75506) and goat anti-rabbit IgG antibody (Alexa Fluor 488) were purchased from Abcam (Cambridge, MA, USA).
(§2) The two tumor cell lines WM-266-4 and A-2058 were grown in cell culture flasks as monolayers and maintained in EMEM and DMEM, respectively, supplemented with 10% fetal bovine serum (FBS), penicillin (50 IU/ml), streptomycin (50 μg/ml) and L-Glutamine (2 mM). The Caco-2, HT-29 and 8305C cells, respectively, were grown in EMEM 20% FBS, McCoy's 5a Medium Modified 10% FBS and RPMI 20% FBS. All reagents used for maintaining tumor cells in culture were purchased from Sigma-Aldrich. The cell lines were maintained in the B5061EK/CO2 mod. Heraeus incubator (Hanau, Germany) at a temperature of 37° C. in a humid atmosphere at 5% CO2. The cells were detached from the culture plates while in the logarithmic growth phase by using a 10× trypsin-EDTA solution and finally plated again to be tested or to keep them in culture.
(§3) The concentration that reduced cell survival by 50% (IC50) compared to controls was finally calculated with GraphPad Prism (version 5.0, San Diego, CA). The simultaneous combination of Vemurafenib and ML00253764 was assessed in the 2 melanoma lines for 72 hours using the aforementioned compounds in a fixed molar ratio of 1:10. The assessment of the level of interaction (synergism, additivity or antagonism) between the compounds ML00253764 and Vemurafenib was performed with the Combination Index (CI) method, according to which CI=1 indicates an additive effect, CI>1 an antagonistic effect and CI<1 a synergistic effect.

The subject of assay [2] is WM 266-4 human melanoma cell line. The description is as above. The note with it: for IC50: Homo sapiens, WM 266-4 cells, 72 h drug exposure, cell proliferation vs vehicle controls.
Text: as §1, §2, §3

Assay [3] relates to WM 266-4 human melanoma cells. Briefly: Apoptosis analysis by Cell Death Detection ELISA Plus. The note with it: WM 266-4 cells, 35 nM (corresponding to the IC50), 72 h. The procedure: (§4) In order to assess the apoptotic activity, the melanoma cells were plated at 2×10^5 in sterile Petri dishes. The analysis of apoptosis was performed on WM-266-4 and A-2058 cell lines after treatment with the compound ML00253764 at the experimental IC50 obtained after 72 hours. After the treatment, the cells were scraped off and recovered with their medium into blind ended tubes and counted in the Burker chamber. An aliquot containing 50,000 cells was centrifuged for 10 minutes at 800 rpm, the pellet thus obtained was lysed with an appropriate volume of lysis buffer for 30 minutes at room temperature, then again centrifuged at 200 g for 10 minutes. The supernatant was used for apoptosis analysis by ELISA assay (Cell Death detection ELISA PLUS, Roche). The ELISA apoptosis assay was performed in 96-well microplates and the absorbance reading was performed by using the Thermo labsystems Multiskan Spectrum reader (M-Medical, MI). To visualize the apoptotic process, 2×10^4 A-2058 cells were plated on slides in a 12-well plate and treated for 72 hours with the compound ML00253764 at a concentration of 10 nM. At the end of the incubation with the drug, the cells were washed with PBS, fixed and stained with TO-PRO3 iodide. The coverslips were finally mounted, and the slides viewed under a Leica TCS SP5 confocal laser scanning microscope. […]

The subject of assay [4] is A-2058 human melanoma cells. The assay is described as above. The conditions noted are these: A-2058 cells, 10 nM (corresponding to the IC50), 72 h. The protocol:
as §4

The test system of assay [5] is 8305C human thyroid carcinoma cell line. Description: In vitro cytotoxicity / antiproliferative effect, cell count after 72 h. The conditions noted are these: 8305C cells.
Text: as §1, §2, §3
(§5) The related IC50s were calculated at the end of the experiments.

Assay [6] deals with HT-29 human carcinoma cell line of the gastrointestinal tract. Described as above. The note with it: HT-29 cells.
Text: as §1, §2, §3, §5

The subject of assay [7] is A-2058 human melanoma cells. Description: Apoptosis visualised by TO-PRO3 iodide nuclear staining, confocal microscopy. The conditions noted are these: A-2058 cells, 10 nM, 72 h. The procedure: as §4
Where [8] appears, read: Homo sapiens, 72 h drug exposure, cell proliferation vs vehicle controls.

As to `CCCS(=O)(=O)Nc1ccc(F)c(C(=O)c2c[nH]c3ncc(-c4ccc(Cl)cc4)cc23)c1F` [Vemurafenib], the IC50 turned out to be 526 nM in assay [1] and 46.6 nM in assay [2].
For `COc1ccc(Br)cc1CCc1c(F)cccc1C1=NCCN1` [ML00253764, 2-[2-[2-(5-bromo-2-methoxyphenyl)-ethyl]-3-fluorophenyl]-4,5-dihydro-1H-imidazole], the antiproliferative effect entry in assay [1] (10 nM, 72 h) is on record as “significant antiproliferative effect”; in assay [2] (WM-266-4 cells, 10 nM, 72 h), “significant antiproliferative effect”; in assay [5] (10 nM, 72 h) it was “significant antiproliferative effect”; in assay [6] (10 nM, 72 h) it was “significant antiproliferative effect”. Further, the IC50 in assay [1] worked out at 11.1 nM; in assay [2] it was 33.7 nM; in assay [5] (setting [8]), 7670 nM; in assay [6] (setting [8]), 806 nM. Besides, in assay [3], the “apoptotic signal (ELISA, cytosolic nucleosomes)” value is given as “significant increase in the apoptotic signal”. Further, the “pro-apoptotic activity (ELISA, cytosolic nucleosomes)” value in assay [4] was “significant pro-apoptotic activity”. The “apoptosis, TO-PRO3 nuclear fluorescence” value in assay [7] is on record as “increase in fluorescence with “shrunken” nuclei”.

Broadly, the IC50 is the concentration that inhibits the measured activity by half.
